# Measured values taken from patent US8410309B2, “Phenoxy carboxylic acid compounds and compositions for delivering active agents” (Emisphere Technologies, Inc., priority 1999, dated 2013).
# Several values for one entry are separate records, joined by “and”; a condition that tells them apart may be missing. Equal values may be shown once.
# How the values were obtained:
# [1] = Recombinant human growth hormone (rhGH) oral delivery, serum rhGH by immunoassay; conditions: oral gavage, rats, volume dose 1 ml
# Protocol: Oral gavage (PO) dosing solutions of delivery agent compound and rhGH in phosphate buffer were prepared by mixing. A solution of the delivery agent compound was made either with the sodium salt of the delivery agent compound or by converting the free acid to its sodium salt.
# The typical dosing and sampling protocols were as follows. Male Sprague-Dawley rats weighing 200-250 g were fasted for 24 hours and administered ketamine (44 mg/kg) and chlorpromazine (1.5 mg/kg) 15 minutes prior to dosing and again as needed to maintain anesthesia. A dosing group of five animals was administered one of the dosing solutions. An 11 cm Rusch 8 French catheter was adapted to a 1 ml syringe with a pipette tip. The syringe was filled with dosing solution by drawing the solution through the catheter, which was then wiped dry. The catheter was placed down the esophagus leaving 1 cm of tubing past the incisors. The dosing solution was administered by pressing the syringe plunger.
# Blood samples were collected serially from the tail artery typically at time=15, 30, 45, 60 and 90 minutes. The five samples from each time period were pooled (except for those samples for which standard deviation (SD) and standard error (SE) are reported). Serum rHGH concentrations were quantified by an rHGH immunoassay test kit (Kit # K1F4015 from Genzyme Corporation Inc., Cambridge, Mass.).
# [2] = Salmon calcitonin (sCT) oral delivery, serum sCT by EIA; conditions: rats, delivery agent compound dose 150 mg/kg, sCT dose 30 μg/kg
# Protocol: Oral dosing (PO) compositions of a delivery agent compound and salmon calcitonin (sCT) in deionized water were prepared as described in Table 2 below. […] Either the sodium salt of the compound was used or the free acid was converted to the sodium salt by stirring the resultant solution and adding one equivalent of sodium hydroxide (1.0 N) and diluting with water. The solution was vortexed, then heated (about 37° C.) and sonicated. The pH was adjusted to about 7 (about 6.5 to 8.5) with NaOH or HCl. 90 μg sCT from a sCT stock solution (2 mg/ml made by adding 10001 pH 4 phosphate buffer to sCT and allowing it to go into solution by sitting for about 10-20 minutes and periodically gently inverting) was added to the solution.
# The typical dosing and sampling protocols were as follows. Male Sprague-Dawley rats weighing between 200-250 g were fasted for 24 hours and administered ketamine (44 mg/kg) and chlorpromazine (1.5 mg/kg) 15 minutes prior to dosing and again as needed to maintain anesthesia. A dosing group of five animals was administered one of the dosing solutions. For oral dosing, an 11 cm Rusch 8 French catheter was adapted to a 1 ml syringe with a pipette tip. The syringe was filled with dosing solution by drawing the solution through the catheter, which was then wiped dry. The catheter was placed down the esophagus leaving 1 cm of tubing past the incisors. Solution was administered by pressing the syringe plunger.
# Blood samples were collected serially from the tail artery, typically at time=0, 10, 20, 30, 60 and 90 minutes. […] Numbers were adjusted according to baseline values obtained at time=0. The results from the animals in each dosing group were averaged for each time point.
# [3] = Heparin oral/intracolonic delivery, clotting time by activated partial thromboplastin time (APTT); format: in vivo, Sprague-Dawley rats; conditions: IC (intracolonic), rats; delivery agent compound 50 mg/kg, heparin 25 mg/kg, volume dose 1 ml; baseline about 20 seconds
# Protocol: Oral gavage (PO) and/or intracolonic (IC) dosing solutions containing a delivery agent compound and heparin sodium USP were prepared in 25% aqueous propylene glycol. […] This dry mixture was dissolved in 25% v/v aqueous propylene glycol, vortexed, and placed in a sonicator (about 37° C.). The pH was adjusted to about 7 (6.5 to 8.5) with aqueous NaOH (2N). The dosing solution was sonicated to produce a clear solution. The final volume was adjusted to about 3.0 ml.
# (§1) The typical dosing and sampling protocols were as follows. […] The dosing solution was expressed slowly into the colon by pressing the syringe plunger.
# Citrated blood samples were collected by cardiac puncture following the administration of ketamine (88 mg/kg), typically at 0.25, 0.5, 1.0 and 1.5 hours after dosing. Heparin absorption was verified by an increase in clotting time measured by the activated partial thromboplastin time (APTT) according to the method of Henry, J. B., Clinical Diagnosis and Management by Laboratory Methods, Philadelphia, Pa., W.B. Saunders (1979). Previous studies indicated baseline values of about 20 seconds.
# [4] = Insulin oral delivery, serum human insulin by ELISA; conditions: rats
# Protocol: Oral dosing (PO) compositions of delivery agent compound and human zinc insulin (minimum 26 IU/mg available from Calbiochem—Novabiochem Corp, La Jolla, Calif.) were prepared in deionized water. […] The pH was adjusted to about 7 to 8.5 with NaOH or HCl. […] The final delivery agent compound dose, insulin dose and dose volume amounts are listed below in Table 8.
# The typical dosing and sampling protocols were as follows.
# Serum insulin levels were determined with an Insulin ELISA Test Kit (Kit # DSL-10-1600 from Diagnostic Systems Laboratories, Inc., Webster, Tex.), modifying the standard protocol in order to optimize the sensitivity and linear range of the standard curve for the volumes and concentrations of the samples used in the present protocol. […] The five values for each time point were averaged and the results plotted as serum insulin concentration versus time.
# [5] = Low molecular weight heparin (LMWH) oral/intracolonic delivery, plasma LMWH by anti-Factor Xa assay; format: in vivo, Sprague-Dawley rats; conditions: IC, rats, LMWH 750 IU/kg, 1 ml/kg
# Protocol: Oral dosing (PO) and/or intracolonic (IC) compositions containing a delivery agent compound and low molecular weight heparin (LMWH) were prepared in 25% aqueous propylene glycol. […] Typically, the delivery agent compound and LMWH (Parnaparin, 91 IU/mg average molecular weight about 5,000, available from Opocrin, Modena, Italy) (typically 90-105 IU/mg, average molecular weight about 5,000) were mixed by vortex as dry powders. This dry mixture was dissolved in 25% v/v aqueous propylene glycol, vortexed, and placed in a sonicator (37° C.) to produce a clear solution. The pH was adjusted to about 7 (6.5-8.5) with 2N aqueous NaOH. The dosing solution was sonicated to produce a clear solution. The final volume was adjusted to 3.0 ml.
# as §1
# Citrated blood samples were collected by cardiac puncture following the administration of ketamine (88 mg/kg), typically at 0.5, 1.0, 2.0, 3.0 and 4.0 hours after dosing. LMWH absorption was verified by an increase in plasma LMWH measured by the anti-Factor Xa assay CHROMOSTRATE™ Heparin anti-Xa assay (available from Organon Teknika Corporation, Durham, N.C.). […] The peak of these mean plasma LMWH concentrations is reported below in Table 5.
# [6] = delivery agent compound 200 mg/kg, rhGH 3 mg/kg
# [7] = delivery agent compound 200 mg/kg, insulin 0.5 mg/kg, 1 ml/kg
# [8] = delivery agent compound 50 mg/kg
# [9] = delivery agent compound 100 mg/kg, insulin 3 mg/kg, 0.5 ml/kg
# [10] = delivery agent compound 200 mg/kg, insulin 3 mg/kg, 1 ml/kg
smiles,measurement,setting,value
COc1ccc(OCCCCCCCC(=O)O)c(C(C)=O)c1 [Compound 55],Mean Peak Serum [rhGH],[1]; [6],12.4 ng/mL
CC=Cc1ccccc1OCCCCCCCC(=O)O [Compound 18],Mean Peak Serum sCT (pg/ml ± SD) (SE),[2]; dose volume 2 (ml),14 ± 4183 pg/mL
same,Mean Peak Serum [rhGH],"[1]; delivery agent compound 162 mg/kg, rhGH 2.6 mg/kg",3.1 ng/mL
same,Mean Peak Serum [rhGH],[1]; [6],223 ng/mL
CNC(=O)c1ccccc1OCCCCCCCCCC(=O)O [Compound 51],Mean Peak APTT ± SD,[3],92.5 ± 41.5 s
CC(O)c1ccccc1OCCCCCCCC(=O)O (stereo not shown) [Compound 36],Mean Peak Serum sCT (pg/ml ± SD) (SE),[2]; dose volume 1 (ml),0 ± 62 pg/mL
same,Mean Peak Serum [rhGH],[1]; [6],0 ng/mL
O=C(O)CCCCOc1ccccc1C(F)(F)F [Compound 76],Mean Peak Serum [INS] ± SD,[4]; [7],24.72 ± 25.53 μU/ml and 38.74 ± 74.4 μU/ml
Nc1ccccc1OCCCCC(=O)O [Compound 21],Mean Peak Serum [INS] ± SD,[4]; [7],14.46 ± 21.61 μU/ml
same,Mean Peak Serum [rhGH],[1]; [6],19.6 ng/mL
COc1ccccc1OCCCCCCCC(=O)O [Compound 35],Mean Peak Serum [INS] ± SD,[4]; [7],132.3 ± 154.5 μU/ml
same,Mean Peak APTT ± SD,[3],65.8 ± 35.5 s
O=C(O)c1ccc(C(O)COc2ccccc2O)cc1 (stereo not shown) [Compound 79],Mean Peak Serum sCT (pg/ml ± SD) (SE),[2]; dose volume 1 (ml),133 ± 90 pg/mL
O=C(O)c1ccc(COc2ccccc2)cc1 [Compound 66],Mean Peak Plasma LMWH Concentration ± SD,"[5]; delivery agent compound 50 mg/kg, 50 mg/kg",0.952 IU/ml and 1.114 ± 0.254 IU/ml
same,Mean Peak Serum sCT (pg/ml ± SD) (SE),[2]; dose volume 4 (ml),109 ± 244 pg/mL
same,Mean Peak Serum [rhGH],[1]; [6],0 ng/mL
NC(=O)c1ccccc1OCc1ccc(C(=O)O)cc1 [Compound 52],Mean Peak Serum sCT (pg/ml ± SD) (SE),[2]; dose volume 1 (ml),163 ± 300 pg/mL
same,Mean Peak Serum [rhGH],[1]; [6],0 ng/mL
CC(=O)c1ccccc1OCCCCCCCCCC(=O)O [Compound 54],Mean Peak Plasma LMWH Concentration ± SD,[5]; [8],3.046 ± 0.422 IU/ml
same,Mean Peak Serum sCT (pg/ml ± SD) (SE),[2]; dose volume 1 (ml),34 ± 47 pg/mL
same,Mean Peak APTT ± SD,[3],31.56 ± 7.54 s
same,Mean Peak Serum [rhGH],[1]; [6],6.37 ng/mL
O=Cc1ccccc1OCc1ccc(C(=O)O)cc1 [Compound 59],Mean Peak Serum [INS] ± SD,[4]; [7],315.53 ± 154.56 μU/ml
O=Cc1ccccc1OCCCCCC(=O)O [Compound 60],Mean Peak Serum [rhGH],[1]; [6],1.5 ± 3.3 ng/mL
CCC(=O)c1ccccc1OCCCCCCCC(=O)O [Compound 28],Mean Peak Plasma LMWH Concentration ± SD,[5]; delivery agent compound 25 mg/kg,1.43 ± 0.31 IU/ml
same,Mean Peak Plasma LMWH Concentration ± SD,[5]; [8],1.64 ± 0.45 IU/ml
same,Mean Peak Serum sCT (pg/ml ± SD) (SE),[2]; dose volume 1 (ml),138 ± 90 pg/mL
same,Mean Peak APTT ± SD,[3],143.6 ± 44 s and 251.1 ± 109.34 s
O=C(O)CCCCCCCOc1ccccc1[N+](=O)[O-] [Compound 20],Mean Peak Serum [INS] ± SD,[4]; [7],27.68 ± 12.5 μU/ml
same,Mean Peak Serum sCT (pg/ml ± SD) (SE),"[2]; dose volume 1 (ml), 150 mg/kg",138 ± 107 pg/mL and 85 ± 82 pg/mL and 96 ± 135 pg/mL
same,Mean Peak Serum [rhGH],[1]; [6],22.6 ng/mL
CCC(=O)c1ccccc1OCCCCCC(=O)O [Compound 27],Mean Peak Plasma LMWH Concentration ± SD,[5]; [8],1.622 ± 0.265 IU/ml
same,Mean Peak Serum sCT (pg/ml ± SD) (SE),[2]; dose volume 1 (ml),163 ± 106 pg/mL
same,Mean Peak Serum [rhGH],[1]; [6],12.9 ng/mL
CCC(=O)c1ccccc1OCCCCCCCCCC(=O)O [Compound 29],Mean Peak APTT ± SD,[3],105.01 ± 115.28 s and 111.46 ± 108.58 s
same,Mean Peak Serum [rhGH],[1]; [6],0 ng/mL
COc1ccc(C(C)=O)c(OCCCCCCCC(=O)O)c1 [Compound 56],Mean Peak Serum sCT (pg/ml ± SD) (SE),"[2]; dose volume 1 (ml), 150 mg/kg",165 ± 243 pg/mL and 90 ± 125 pg/mL and 113 ± 115 pg/mL and 175 ± 150 pg/mL
same,Mean Peak Serum [rhGH],[1]; [6],0 ng/mL
O=C(O)CCCCCCCOc1cc([N+](=O)[O-])ccc1O [Compound 74],Mean Peak Serum [INS] ± SD,[4]; [9],70.69 ± 127.89 μU/ml
CCC(=O)c1ccccc1OCCCC(=O)O [Compound 26],Mean Peak Serum [INS] ± SD,[4]; [9],240.5 ± 528.29 μU/ml
same,Mean Peak Plasma LMWH Concentration ± SD,[5]; [8],0.262 ± 0.106 IU/ml
same,Mean Peak APTT ± SD,[3],76.7 s and 41.534 ± 25.56 s
same,Mean Peak Serum [rhGH],[1]; [6],8.3 ng/mL
CC(=O)Nc1ccccc1OCCCCCCCC(=O)O [Compound 24],Mean Peak Serum [rhGH],[1]; [6],1.76 ng/mL
CC(=O)c1cccc(OCCCCCCCC(=O)O)c1 [Compound 64],Mean Peak Serum sCT (pg/ml ± SD) (SE),[2]; dose volume 1 (ml),138 ± 148 pg/mL
same,Mean Peak APTT ± SD,[3],220.988 ± 122.2 s and 125.372 ± 114.72 s
same,Mean Peak Serum [rhGH],[1]; [6],5 ng/mL
O=C(O)CCCCCCCCCCOc1ccccc1O [Compound 72],Mean Peak Serum [INS] ± SD,[4]; [10],4702.5 ± 4700.4 μU/ml
same,Mean Peak Serum [rhGH],[1]; [6],28 ng/mL
CC(=O)c1ccccc1OCCCC(=O)O [Compound 9],Mean Peak Plasma LMWH Concentration ± SD,[5]; [8],0.474 ± 0.095 IU/ml
same,Mean Peak APTT ± SD,[3],21.45 ± 1.71 s
same,Mean Peak Serum [rhGH],[1]; [6],1 ng/mL
O=C(O)CCCCOc1ccccc1F [Compound 75],Mean Peak Serum [INS] ± SD,[4]; [7],33.88 ± 38.49 μU/ml and 32.54 ± 19.78 μU/ml
O=C(O)CCCOc1ccccc1O [Compound 4],Mean Peak Serum sCT (pg/ml ± SD) (SE),"[2]; dose volume 1 (ml), 150 mg/kg",187 ± 177 pg/mL and 195 ± 436 pg/mL
same,Mean Peak APTT ± SD,[3],40.3 ± 17.8 s and 23.076 ± 4.72 s and 37.148 ± 39.67 s
same,Mean Peak Serum [rhGH],[1]; [6],12.6 ng/mL
O=C(O)CCCCCCCOc1ccccc1Cl [Compound 73],Mean Peak Serum [INS] ± SD,[4]; [9],147.66 ± 176.71 μU/ml
Nc1ccccc1OCCCCCCCC(=O)O [Compound 19],Mean Peak Serum [INS] ± SD,[4]; [7],4.32 ± 1.39 μU/ml
same,Mean Peak Plasma LMWH Concentration ± SD,[5]; [8],0.65 ± 0.37 IU/ml
same,Mean Peak Serum [rhGH],[1]; [6],39.5 ng/mL
O=C(O)CCCCCCCOc1cccc(Cl)c1 [Compound 68],Mean Peak Serum [INS] ± SD,[4]; [10],76.23 ± 76.88 μU/ml
Nc1cc(Cl)ccc1OCCCCC(=O)O [Compound 23],Mean Peak Serum sCT (pg/ml ± SD) (SE),"[2]; dose volume 1 (ml), 150 mg/kg",161 ± 150 pg/mL and 122 ± 273 pg/mL
O=C(O)CCCCCCCCCOc1ccccc1O [Compound 8],Mean Peak Serum [INS] ± SD,[4]; [7],13.14 ± 6.81 μU/ml
same,Mean Peak Serum sCT (pg/ml ± SD) (SE),"[2]; dose volume 1 (ml), 150 mg/kg",166 ± 190 pg/mL and 194 ± 239 pg/mL and 327 ± 323 pg/mL
same,Mean Peak Serum sCT (pg/ml ± SD) (SE),[2]; dose volume 2 (ml),36 ± 49 pg/mL
same,Mean Peak APTT ± SD,[3],251.94 ± 67.96 s
same,Mean Peak Serum [rhGH],[1]; [6],4.88 ng/mL
CC(C)(O)c1ccccc1OCc1ccc(C(=O)O)cc1 [Compound 37],Mean Peak Serum [rhGH],[1]; [6],29 ng/mL
CC(=O)c1ccc(OCCCCCCCC(=O)O)cc1 [Compound 62],Mean Peak Serum sCT (pg/ml ± SD) (SE),[2]; dose volume 1 (ml),117 ± 158 pg/mL
same,Mean Peak APTT ± SD,[3],152.41 ± 136.63 s and 91.204 ± 117.43 s
same,Mean Peak Serum [rhGH],[1]; [6],6.2 ng/mL
COc1cccc(OCCCCCCCC(=O)O)c1C(C)=O [Compound 39],Mean Peak Serum sCT (pg/ml ± SD) (SE),"[2]; dose volume 1 (ml), 150 mg/kg",115 ± 120 pg/mL and 115 ± 178 pg/mL
same,Mean Peak Serum [rhGH],[1]; [6],0 ng/mL
